Results as given in patent US20260109732A1, “LIPID AMINES” (ModernaTX, Inc., priority 2021, published 2026).
Counter-ions that a name gives are not always drawn.

What was measured:
[1] = Diameter and PDI from DLS measurements of mRNA nanoparticles with lipid amines; type: physicochemical
In short: (§1)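 DLS gave size and PDI, and Ribogreen gave encapsulation, for luciferase- or CFTR-mRNA nanoparticles (N:P 4.93). Particles came from IL1/DSPC/cholesterol/PEG-DMG-2K mixed at pH 4, mRNA-loaded, neutralized with TRIS pH 8.12, and then treated with lipid amine SA50 in pH 7.5 buffer.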

HeLa cells [2] = assay: CFTR Protein Expression Assay in HeLa Cells; type: cell-based, Human; conditions: LNPs encapsulating CFTR mRNA, N=4 wells; 5 h serum-free then 24 h; immunofluorescence vs PBS control
In short: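 Readout is fold-change in per-cell CFTR immunofluorescence intensity (488 nm, confocal imaging) relative to PBS-treated cells, from 4 replicate wells. LNPs encapsulating CFTR mRNA were applied serum-free for 5 h, followed by 24 h in complete medium before PFA fixation.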

[3] = Encapsulation of mRNA nanoparticles with lipid amines using Ribogreen assay; type: physicochemical
In short: as §1

HeLa cells [4] = assay: Luciferase Protein Expression Assay in HeLa Cells; type: cell-based, Human; conditions: LNPs encapsulating Luciferase mRNA, 25 ng per well, N=4 wells; 5 h serum-free then 24 h; ONE-Glo
In short: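 Luminescence output, average RLU across N=4 wells, was measured with ONE-Glo after cell lysis. Before that, HeLa cells were exposed to 25 ng/well luciferase-mRNA nanoparticles (PBS control) for 5 h serum-free, then cultured overnight (24 h) in complete MEM.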

[5] = CFTR mRNA nanoparticle with lipid amine
[6] = Luciferase mRNA nanoparticle modified with lipid amine

| Compound | Diameter (nm) [1, 5] | PDI [1, 5] | Diameter (nm) [1, 6] | PDI [1, 6] | Average fold-change in CFTR signal intensity per cell compared to buffer control ± standard deviation (HeLa cells [2]) | % Encapsulation (Ribogreen) [3, 5] | % Encapsulation (Ribogreen) [3, 6] | Average Relative Light Units ± Standard Deviation (HeLa cells [4]) |
| --- | --- | --- | --- | --- | --- | --- | --- | --- |
| CC(C)CCC[C@@H](C)[C@H]1CC[C@H]2[C@@H]3CC=C4C[C@@H](OC(=O)CCC(=O)N(CCCCCCCC(C)N)CCC(C)N)CC[C@]4(C)[C@H]3CC[C@]12C (stereo partly drawn) [SA162, (3S,8S,9S,10R,13R,14S,17R)-10,13-dimethyl-17-((R)-6-methylheptan-2-yl)-2,3,4,7,8,9,10,11,12,13,14,15,16,17-tetradecahydro-1H-cyclopenta[a]phenanthren-3-yl 4-((3-aminobutyl)(8-aminononyl)amino)-4-oxobutanoate dihydrochloride] | 75.4 nm | 0.16 | 75 nm | 0.15 | 21.3 ± 0.6 fold-change | 98.6% | 99.4% | 34454.6 ± 3101.8 Relative Light Units |
| CC(C)CCC[C@@H](C)[C@H]1CC[C@H]2[C@@H]3CC=C4C[C@@H](OC(=O)N(CCC(C)(C)N)CCC(C)(C)N)CC[C@]4(C)[C@H]3CC[C@]12C [SA158, (3S,8S,9S,10R,13R,14S,17R)-10,13-dimethyl-17-((R)-6-methylheptan-2-yl)-2,3,4,7,8,9,10,11,12,13,14,15,16,17-tetradecahydro-1H-cyclopenta[a]phenanthren-3-yl bis(3-amino-3-methylbutyl)carbamate dihydrochloride] | 72.4 nm | 0.15 | 79 nm | 0.28 | 20.4 ± 1.3 fold-change | 98.3% | 99.7% | 33097.8 ± 7405.1 Relative Light Units |
| CC[C@H](CC[C@@H](C)[C@H]1CC[C@H]2[C@@H]3CC=C4C[C@@H](OC(=O)N(CCCCNCCC(N)(CC)CC)CCC(N)(CC)CC)CC[C@]4(C)[C@H]3CC[C@]12C)C(C)C [SA183, (3S,8S,9S,10R,13R,14S,17R)-17-((2R,5R)-5-ethyl-6-methylheptan-2-yl)-10,13-dimethyl-2,3,4,7,8,9,10,11,12,13,14,15,16,17-tetradecahydro-1H-cyclopenta[a]phenanthren-3-yl (3-amino-3-ethylpentyl)(4-((3-amino-3-ethylpentyl)amino)butyl)carbamate trihydrochloride] | 71 nm | 0.14 | 76 nm | 0.21 | 13.6 ± 0.7 fold-change | 99.0% | 99.6% | 33915.2 ± 6639.9 Relative Light Units |
| CC(C)CCC[C@@H](C)[C@H]1CC[C@H]2[C@@H]3CC=C4C[C@@H](SSCCC(=O)N(CCCCCCCC(C)N)CCC(C)N)CC[C@]4(C)[C@H]3CC[C@]12C (stereo partly drawn) [SA172, N-(3-aminobutyl)-N-(8-aminononyl)-3-(((3S,8S,9S,10R,13R,14S,17R)-10,13-dimethyl-17-((R)-6-methylheptan-2-yl)-2,3,4,7,8,9,10,11,12,13,14,15,16,17-tetradecahydro-1H-cyclopenta[a]phenanthren-3-yl)disulfaneyl)propanamide dihydrochloride] | 70.3 nm | 0.13 | 74 nm | 0.10 | 17.8 ± 1.1 fold-change | 98.3% | 99.4% | 27528.4 ± 6654.4 Relative Light Units |
| CC(C)CCC[C@@H](C)[C@H]1CC[C@H]2[C@@H]3CC=C4C[C@@H](OC(=O)N(CCCCNC(C)CC(C)N)C(C)CC(C)N)CC[C@]4(C)[C@H]3CC[C@]12C.Cl.Cl.Cl (stereo partly drawn) [SA126, (3S,8S,9S,10R,13R,14S,17R)-10,13-dimethyl-17-((R)-6-methylheptan-2-yl)-2,3,4,7,8,9,10,11,12,13,14,15,16,17-tetradecahydro-1H-cyclopenta[a]phenanthren-3-yl (4-aminopentan-2-yl)(4-((4-aminopentan-2-yl)amino)butyl)carbamate trihydrochloride] | 79.3 nm | 0.15 | 75 nm | 0.18 | 18.2 ± 2.0 fold-change | 99.4% | 99.7% | 31706.7 ± 7386.3 Relative Light Units |
| CC(C)CCC[C@@H](C)[C@H]1CC[C@H]2[C@@H]3CC=C4C[C@@H](OC(=O)N(CCCCCCCC(C)N)CCC(C)N)CC[C@]4(C)[C@H]3CC[C@]12C (stereo partly drawn) [SA151, (3S,8S,9S,10R,13R,14S,17R)-10,13-dimethyl-17-((R)-6-methylheptan-2-yl)-2,3,4,7,8,9,10,11,12,13,14,15,16,17-tetradecahydro-1H-cyclopenta[a]phenanthren-3-yl (3-aminobutyl)(8-aminononyl)carbamate dihydrochloride] | 72.0 nm | 0.14 | 72 nm | 0.12 | 20.2 ± 1.3 fold-change | 98.2% | 95.8% | 36345.5 ± 6730.7 Relative Light Units |
| CCC(N)(CC)CCNCCCCN(CCC(N)(CC)CC)C(=O)CCSS[C@H]1CC[C@@]2(C)C(=CC[C@H]3[C@@H]4CC[C@H]([C@H](C)CCCC(C)C)[C@@]4(C)CC[C@@H]32)C1 [SA184, N-(3-amino-3-ethylpentyl)-N-(4-((3-amino-3-ethylpentyl)amino)butyl)-3-(((3S,8S,9S,10R,13R,14S,17R)-10,13-dimethyl-17-((R)-6-methylheptan-2-yl)-2,3,4,7,8,9,10,11,12,13,14,15,16,17-tetradecahydro-1H-cyclopenta[a]phenanthren-3-yl)disulfaneyl)propanamide trihydrochloride] | 71 nm | 0.13 | 74 nm | 0.12 | 11.3 ± 0.7 fold-change | 99.0% | 98.8% | 26222.4 ± 4612.1 Relative Light Units |
| CC(C)CCC[C@@H](C)[C@H]1CC[C@H]2[C@@H]3CC=C4C[C@@H](OC(=O)CN(CCCCCCCCN)C(=O)CCCCCN)CC[C@]4(C)[C@H]3CC[C@]12C [SA123, (3S,8S,9S,10R,13R,14S,17R)-10,13-dimethyl-17-((R)-6-methylheptan-2-yl)-2,3,4,7,8,9,10,11,12,13,14,15,16,17-tetradecahydro-1H-cyclopenta[a]phenanthren-3-yl N-(6-aminohexanoyl)-N-(8-aminooctyl)glycinate dihydrochloride] | 83.2 nm | 0.12 | 73 nm | 0.14 | 14.7 ± 1.0 fold-change | 99.0% | 99.5% | 28520.5 ± 6429.4 Relative Light Units |
| CC[C@H](CC[C@@H](C)[C@H]1CC[C@H]2[C@@H]3CC=C4C[C@@H](OC(=O)CCC(=O)N(CCCCNCCC(C)(C)N)CCC(C)(C)N)CC[C@]4(C)[C@H]3CC[C@]12C)C(C)C [SA161, (3S,8S,9S,10R,13R,14S,17R)-17-((2R,5R)-5-ethyl-6-methylheptan-2-yl)-10,13-dimethyl-2,3,4,7,8,9,10,11,12,13,14,15,16,17-tetradecahydro-1H-cyclopenta[a]phenanthren-3-yl 4-((3-amino-3-methylbutyl)(4-((3-amino-3-methylbutyl)amino)butyl)amino)-4-oxobutanoate trihydrochloride] | 74.2 nm | 0.15 | 77 nm | 0.16 | 14.1 ± 1.5 fold-change | 99.6% | 99.6% | 17839.3 ± 7760 Relative Light Units |
| CC(C)CCC[C@@H](C)[C@H]1CC[C@H]2[C@@H]3CC=C4C[C@@H](OC(=O)CCCC(=O)N(CCCN)CCCCCCCCN)CC[C@]4(C)[C@H]3CC[C@]12C.Cl.Cl [SA134, (3S,8S,9S,10R,13R,14S,17R)-10,13-dimethyl-17-((R)-6-methylheptan-2-yl)-2,3,4,7,8,9,10,11,12,13,14,15,16,17-tetradecahydro-1H-cyclopenta[a]phenanthren-3-yl 5-((8-aminooctyl)(3-aminopropyl)amino)-5-oxopentanoate dihydrochloride] | 74.1 nm | 0.10 | 72 nm | 0.13 | 17.7 ± 0.9 fold-change | 98.7% | 99.5% | 29194.3 ± 6336.9 Relative Light Units |
